Test results as given in patent publication US5330897A, “Sialic acid binding lectin of protozoan origin” (South Alabama Medical Science Foundation, priority 1992, dated 1994).

What was measured:
[1] = tested on: T. augusta cell-free lysate hemagglutinin; assay: Inhibition of HA activity of T. augusta cell-free lysate; assay type: biochemical, Tritrichomonas augusta
T. mobilensis lectin = assay: Inhibition of T. mobilensis lectin-mediated hemagglutination; assay type: biochemical, Tritrichomonas mobilensis; details: for Minimal Inhibitory Conc.: 2 units of hemagglutinin; for Inhibition of HA activity of purified lectin (in words): concentrations up to 100 mM where stated
[2] = tested on: T. foetus cell-free lysate hemagglutinin; assay: Inhibition of HA activity of T. foetus cell-free lysate; assay type: biochemical, Tritrichomonas foetus
[3] = tested on: T. mobilensis cell-free lysate hemagglutinin; assay: Inhibition of HA activity of T. mobilensis cell-free lysate; assay type: biochemical, Tritrichomonas mobilensis
live T. mobilensis = assay: Slide agglutination of live T. mobilensis by lectins; assay type: cell-based, Tritrichomonas mobilensis; details: carbohydrate 100 mM
Method: Agglutination of live T. mobilensis with lectins with various carbohydrate binding specificities was performed by a slide agglutination assay. Lectin Kit LK-2000 (Vector Laboratories) consisted of the following lectins: concanavalin A (ConA), wheat germ agglutinin (WGA), soybean agglutinin (SBA), gorse seed agglutinin (UEA-1), castor bean agglutinin type 1 (RCA-1), peanut agglutinin (PNA), and horse gram agglutinin (DBA). Limulus polyphemus lectin (LPA) was obtained from Sigma, and Limax flavus (LFA) agglutinin from EY Labs. Lectins and specific carbohydrates were dissolved in buffers recommended by the manufacturers. Twenty five μl of washed T. mobilensis (about 2×10^7 /ml) were placed onto a glass slide. An equal volume of lectin (200 μg/ml) or lectin with specific carbohydrate (final concentration, 100 mM) was added. After mixing for 2 to 3 min, the agglutination was evaluated under a microscope.

live cells of T. foetus = assay: Inhibition of HA by live cells of T. foetus; assay type: cell-based, Tritrichomonas foetus
[4] = tested on: T. mobilensis hemolysis of erythrocytes; assay: Whole organism hemolysis assay, inhibition; assay type: cell-based, Tritrichomonas mobilensis
Source text: Tritrichomonas mobilensis, an enteric parasite of squirrel monkeys, adheres readily to isolated monkey intestinal epithelial cells and agglutinates human erythrocytes in vitro. These activities are mediated by a sialic acid binding lectin. Hemagglutination by either parasites or purified lectin is inhibited by N-acetylneuraminic acid and anti-lectin monoclonal antibody (MAB), but not by 2,3-dehydro-2-desoxy-N-acetylneuraminic acid, a neuraminidase inhibitor. T. mobilensis hemolyzes erythrocytes in a modification of a previously published whole organism hemolysis assay. Hemolysis is inhibited by N-acetylneuraminic acid, 2,3-dehydro-2-desoxy-N-acetylneuraminic acid, anti-lectin MAB, T. mobilensis lectin and other sialic acid binding lectins, fetuin, and colominic acid, but not by asialofetuin, or leupeptin. Desialated erythrocytes are neither agglutinated nor hemolyzed.

[5] = tested on: sialidase from T. mobilensis; assay: Inhibition of sialidase activity associated with the affinity column; assay type: biochemical, Tritrichomonas mobilensis; details: 1 mM inhibitor
Method: Free sialic acid release from bovine submaxillary mucin was used to determine enzymatic activity. Sample to be tested (total volume 50 μl) was mixed with 250 μl of 0.1M acetate, pH 5.0 and 200 μl of 1% mucin in water. After incubation at 37° for 30 minutes, 0.5 ml of 5% phosphotungstic acid in 2.5N HCl was added with vortexing. Assay tubes were centrifuged at 2000×g for 10 minutes, and 250 μl of the supernatant was assayed for sialic acid by the thiobarbituric acid method (Warren, J. Biol. Chem. 234:1971-1975 (1959)). Activity was calculated as μmoles of sialic acid released during a 30 min incubation at 37°. Controls were identical samples precipitated by phosphotungstic acid before the 37° incubation.
The sialidase(s) from T. mobilensis can be separated from HA activity by carefully controlling elution conditions from the affinity column. […] Affinity purified lectin is not inhibited at inhibitor concentrations up to 100 mM, while the sialidase activity associated with the column is inhibited by 50% at 1 mM inhibitor. […] Alternatively, they may simply reflect the affinity of the sialidase for mucin.

[6] = tested on: live T. mobilensis flagellates; assay: Inhibition of hemagglutination by live T. mobilensis; details: sugars up to 100 mM; normal erythrocytes, room temperature
[7] = tested on: T. mobilensis attachment to CHO cells; assay: Carbohydrate inhibition of T. mobilensis adherence to CHO cells; assay type: cell-based, Tritrichomonas mobilensis; details: concentration-dependent; other carbohydrates up to 100 mM
Method: The kinetics of T. mobilensis-CHO trypsin-dispersed cell interactions were studied in a cell suspension system. Equal volumes (100 μl) of 10^5 CHO cells and 10^6 (unless otherwise specified) trichomonads resuspended in serum-free M199 were mixed in microfuge tubes and incubated at room temperature (unless otherwise stated) with gentle agitation. Periodically the percentage of CHO cells with adherent flagellates was determined microscopically in wet-mount preparations, 100 CHO cells being examined in each preparation.

## OC[C@H]1OC(O)[C@H](O)[C@@H](O)[C@@H]1O (stereo partly drawn) [D-glucose]
[1]; carbohydrates, […]
  Conc. required to inhibit 2 HA units, T. augusta: > 200 µg/mL
T. mobilensis lectin; carbohydrates
  Minimal Inhibitory Conc.: > 100 mM
[2]; carbohydrates, […]
  Conc. required to inhibit 2 HA units, T. foetus: > 200 µg/mL
[3]; carbohydrates, […]
  Conc. required to inhibit 2 HA units, T. mobilensis: > 200 µg/mL

## CC(=O)N[C@H]1C(O)O[C@H](CO)[C@@H](O)[C@@H]1O (stereo partly shown) [N-acetylglucosamine]
[1]; carbohydrates, […]
  Conc. required to inhibit 2 HA units, T. augusta: > 200 µg/mL
T. mobilensis lectin; carbohydrates
  Minimal Inhibitory Conc.: > 100 mM
[2]; carbohydrates, […]
  Conc. required to inhibit 2 HA units, T. foetus: > 200 µg/mL
[3]; carbohydrates, […]
  Conc. required to inhibit 2 HA units, T. mobilensis: > 200 µg/mL
Live T. mobilensis
  Effect of specific carbohydrate on agglutinating activity of the appropriate lectin: abolished agglutinating activity

## C[C@H]1OC(O)[C@H](O)[C@@H](O)[C@H]1O (stereo partly drawn) [D-fucose]
[1]; carbohydrates, […]
  Conc. required to inhibit 2 HA units, T. augusta: > 200 µg/mL
T. mobilensis lectin; carbohydrates
  Minimal Inhibitory Conc.: > 100 mM
[2]; carbohydrates, […]
  Conc. required to inhibit 2 HA units, T. foetus: > 200 µg/mL
[3]; carbohydrates, […]
  Conc. required to inhibit 2 HA units, T. mobilensis: > 200 µg/mL
Live T. mobilensis
  Effect of specific carbohydrate on agglutinating activity of the appropriate lectin: abolished agglutinating activity

## OC1OC[C@@H](O)[C@H](O)[C@H]1O (stereo partly drawn) [D-xylose]
[1]; carbohydrates, […]
  Conc. required to inhibit 2 HA units, T. augusta: > 200 µg/mL
T. mobilensis lectin; carbohydrates
  Minimal Inhibitory Conc.: > 100 mM
[2]; carbohydrates, […]
  Conc. required to inhibit 2 HA units, T. foetus: > 200 µg/mL
[3]; carbohydrates, […]
  Conc. required to inhibit 2 HA units, T. mobilensis: > 200 µg/mL

## Orosomucoid: sialoconjugate (sialoglycoprotein)
[1]; sialoglycoproteins
  Conc. required to inhibit 2 HA units, T. augusta: 150 µg/mL
Live cells of T. foetus
  Conc. required to Inhibit 2 HA Units: 500 µg/mL
[2]; sialoglycoproteins
  Conc. required to inhibit 2 HA units, T. foetus: 150 µg/mL
[3]; sialoglycoproteins
  Conc. required to inhibit 2 HA units, T. mobilensis: 150 µg/mL

## colominic acid
[4]
  Inhibition of hemolysis: inhibited

## CC(=O)N[C@H]1C(O)O[C@H](CO)[C@H](O)[C@@H]1O (stereo partly shown) [N-acetylgalactosamine]
[1]; carbohydrates, […]
  Conc. required to inhibit 2 HA units, T. augusta: > 200 µg/mL
T. mobilensis lectin; carbohydrates
  Minimal Inhibitory Conc.: > 100 mM
[2]; carbohydrates, […]
  Conc. required to inhibit 2 HA units, T. foetus: > 200 µg/mL
[3]; carbohydrates, […]
  Conc. required to inhibit 2 HA units, T. mobilensis: > 200 µg/mL
Live T. mobilensis
  Effect of specific carbohydrate on agglutinating activity of the appropriate lectin: abolished agglutinating activity

## O=C(CO)[C@@H](O)[C@H](O)[C@H](O)CO [D-fructose]
[1]; carbohydrates, […]
  Conc. required to inhibit 2 HA units, T. augusta: > 200 µg/mL
T. mobilensis lectin; carbohydrates
  Minimal Inhibitory Conc.: > 100 mM
[2]; carbohydrates, […]
  Conc. required to inhibit 2 HA units, T. foetus: > 200 µg/mL
[3]; carbohydrates, […]
  Conc. required to inhibit 2 HA units, T. mobilensis: > 200 µg/mL

## OC[C@H]1OC(O)[C@@H](O)[C@@H](O)[C@@H]1O (stereo partly drawn) [D-mannose]
[1]; carbohydrates, […]
  Conc. required to inhibit 2 HA units, T. augusta: > 200 µg/mL
T. mobilensis lectin; carbohydrates
  Minimal Inhibitory Conc.: > 100 mM
[2]; carbohydrates, […]
  Conc. required to inhibit 2 HA units, T. foetus: > 200 µg/mL
[3]; carbohydrates, […]
  Conc. required to inhibit 2 HA units, T. mobilensis: > 200 µg/mL
Live T. mobilensis
  Effect of specific carbohydrate on agglutinating activity of the appropriate lectin: abolished agglutinating activity

## CC(=O)N[C@H]1[C@H]([C@H](O)[C@H](O)CO)OC(C(=O)O)=C[C@@H]1O [2,3-dehydro-2-deoxy-N-acetylneuraminic acid]
[5]
  Inhibition of sialidase activity: 50%
T. mobilensis lectin; carbohydrates
  Minimal Inhibitory Conc.: > 100 mM
T. mobilensis lectin
  Inhibition of HA activity of purified lectin (in words): not inhibited
[4]
  Inhibition of hemolysis: inhibited

## N-acetylneuraminic acid-lactose [sialyllactose]
[6]
  Inhibition of hemagglutination by live T. mobilensis: inhibited
[7]
  Inhibition of attachment of parasites to CHO cells: inhibited

## OC[C@H]1OC(O)[C@H](O)[C@@H](O)[C@H]1O (stereo partly drawn) [D-galactose]
[1]; carbohydrates, […]
  Conc. required to inhibit 2 HA units, T. augusta: > 200 µg/mL
T. mobilensis lectin; carbohydrates
  Minimal Inhibitory Conc.: > 100 mM
[2]; carbohydrates, […]
  Conc. required to inhibit 2 HA units, T. foetus: > 200 µg/mL
[3]; carbohydrates, […]
  Conc. required to inhibit 2 HA units, T. mobilensis: > 200 µg/mL
Live T. mobilensis
  Effect of specific carbohydrate on agglutinating activity of the appropriate lectin: abolished agglutinating activity

## O=C(CO)N[C@H]1[C@H]([C@H](O)[C@H](O)CO)OC(O)(C(=O)O)C[C@@H]1O (stereo partly shown) [N-glycolylneuraminic acid]
[6]
  Inhibition of hemagglutination by live T. mobilensis: inhibited
T. mobilensis lectin; carbohydrates
  Minimal Inhibitory Conc.: 8.3 mM

## CC(=O)N[C@H]1[C@H]([C@H](O)[C@H](O)CO)OC(O)(C(=O)O)C[C@@H]1O (stereo partly shown) [N-acetylneuraminic acid]
[1]; carbohydrates, […]
  Conc. required to inhibit 2 HA units, T. augusta: 10 µg/mL
[6]
  Inhibition of hemagglutination by live T. mobilensis: inhibited
T. mobilensis lectin; carbohydrates
  Minimal Inhibitory Conc.: 2.0 mM
T. mobilensis lectin
  Inhibition of HA activity of purified lectin (in words): inhibited
[7]
  Inhibition of attachment of parasites to CHO cells: inhibited
[4]
  Inhibition of hemolysis: inhibited
[2]; carbohydrates, […]
  Conc. required to inhibit 2 HA units, T. foetus: > 200 µg/mL
[3]; carbohydrates, […]
  Conc. required to inhibit 2 HA units, T. mobilensis: 5 µg/mL

## Bovine submaxillary mucin
[1]; sialoglycoproteins
  Conc. required to inhibit 2 HA units, T. augusta: 40 µg/mL
Live cells of T. foetus
  Conc. required to Inhibit 2 HA Units: 125 µg/mL
T. mobilensis lectin; glycoproteins or proteins
  Minimal Inhibitory Conc.: 0.65 µg/mL
[2]; sialoglycoproteins
  Conc. required to inhibit 2 HA units, T. foetus: 60 µg/mL
[3]; sialoglycoproteins
  Conc. required to inhibit 2 HA units, T. mobilensis: 60 µg/mL

B1: Fetuin: sialoconjugate (sialoglycoprotein) (protein, UniProt P12763 19-359, looked up)
Alpha-2-HS-glycoprotein: IPLDPVAGYKEPACDDPDTEQAALAAVDYINKHLPRGYKHTLNQIDSVKVWPRRPTGEVYDIEIDTLETTCHVLDPTPLANCSVRQQTQHAVEGDCDIHVLKQDGQFSVLFTKCDSSPDSAEDVRKLCPDCPLLAPLNDSRVVHAVEVALATFNAESNGSYLQLVEISRAQFVPLPVSVSVEFAVAATDCIAKEVVDPTKCNLLAEKQYGFCKGSVIQKALGGEDVRVTCTLFQTQPVIPQPQPDGAEAEAPSAVPDAAGPTPSAAGPPVASVVVGPSVVAVPLPLHRAHYDLRHTFSGVASVESSSGEAFHVGKTPIVGQPSIPGGPVRLCPGRIRYFKI
[1]; sialoglycoproteins
  Conc. required to inhibit 2 HA units, T. augusta: 100 µg/mL
Live cells of T. foetus
  Conc. required to Inhibit 2 HA Units: 60 µg/mL
T. mobilensis lectin; glycoproteins or proteins
  Minimal Inhibitory Conc.: 8.33 µg/mL
[4]
  Inhibition of hemolysis: inhibited
[2]; sialoglycoproteins
  Conc. required to inhibit 2 HA units, T. foetus: 60 µg/mL
[3]; sialoglycoproteins
  Conc. required to inhibit 2 HA units, T. mobilensis: 100 µg/mL

B2: Glycophorin: a major sialoglycoprotein of erythrocyte membranes (protein, UniProt P02724 20-150, looked up)
Glycophorin-A: LSTTEVAMHTSTSSSVTKSYISSQTNDTHKRDTYAATPRAHEVSEISVRTVYPPEEETGERVQLAHHFSEPEITLIIFGVMAGVIGTILLISYGIRRLIKKSPSDVKPLPSPDTDVPLSSVEIENPETSDQ
[1]; sialoglycoproteins
  Conc. required to inhibit 2 HA units, T. augusta: 10 µg/mL
Live cells of T. foetus
  Conc. required to Inhibit 2 HA Units: 10 µg/mL
T. mobilensis lectin; glycoproteins or proteins
  Minimal Inhibitory Conc.: 0.42 µg/mL
[2]; sialoglycoproteins
  Conc. required to inhibit 2 HA units, T. foetus: 10 µg/mL
[3]; sialoglycoproteins
  Conc. required to inhibit 2 HA units, T. mobilensis: 10 µg/mL

B3: Asialoglycophorin: glycophorin lacking the sialic acid (protein, UniProt P02724 20-150, looked up)
Glycophorin-A: B2 Glycophorin-A
modifications: desialylated
notes: glycophorin lacking the sialic acid
[1]; sialoglycoproteins
  Conc. required to inhibit 2 HA units, T. augusta: 500 µg/mL
Live cells of T. foetus
  Conc. required to Inhibit 2 HA Units: 500 µg/mL
T. mobilensis lectin; glycoproteins or proteins
  Minimal Inhibitory Conc.: 83.3 µg/mL
[2]; sialoglycoproteins
  Conc. required to inhibit 2 HA units, T. foetus: 500 µg/mL
[3]; sialoglycoproteins
  Conc. required to inhibit 2 HA units, T. mobilensis: 500 µg/mL
